Source: US11976137B2, “Compounds for use as apelin receptor antagonists” (Cambridge Enterprise Limited, priority 2018, dated 2024)
Values joined by “and” are separate entries in the source; they are usually repeats but may differ in a detail not shown here. Equal values may be shown once. Read-outs that look alike come from different tables or passages of the source. Non-standard residues stand in square brackets, D forms with d. Residues, ends and D or L forms follow the SMILES beside them. *: point of attachment. Phe(3,4,5-F3) = N[C@@H](Cc1cc(F)c(F)c(F)c1)C(=O)O; Myristoyl = CCCCCCCCCCCCCC(=O)*; pGlu = O=C1CC[C@@H](C(=O)O)N1; Nle = CCCC[C@H](N)C(=O)O; Abu = CC[C@H](N)C(=O)O; Aib = CC(C)(N)C(=O)O

Experiments:
Set-up in all cases: host or cells: CHO-K1
human apelin receptor [1] = biological target: T1, human apelin receptor (Homo sapiens, UniProt P35414); assay: DRx cAMP assay (cAMP Hunter eXpress AGTRL1 CHO-K1), forskolin-induced cAMP accumulation; format: cell-based; conditions: DRx cAMP pA2, antagonism of [Pyr1]apelin-13 inhibition of forskolin-stimulated cAMP
T1 sequence (P35414 1-380): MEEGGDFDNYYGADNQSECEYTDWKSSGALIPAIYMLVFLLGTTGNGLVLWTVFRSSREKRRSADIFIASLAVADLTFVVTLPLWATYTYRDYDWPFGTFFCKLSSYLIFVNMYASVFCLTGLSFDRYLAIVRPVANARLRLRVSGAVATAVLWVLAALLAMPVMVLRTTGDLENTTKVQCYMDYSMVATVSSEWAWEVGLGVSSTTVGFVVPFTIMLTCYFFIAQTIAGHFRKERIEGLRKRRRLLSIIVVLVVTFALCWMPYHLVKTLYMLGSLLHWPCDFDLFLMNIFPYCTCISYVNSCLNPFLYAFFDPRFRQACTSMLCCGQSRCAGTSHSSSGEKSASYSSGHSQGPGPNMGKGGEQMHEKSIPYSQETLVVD
Procedure: Antagonist activity at the apelin receptor was measured in two assays.
(§1) cAMP (cAMP Hunter™ eXpress AGTRL1 CHO-K1 GPCR Assay, DiscoverX Corporation, Ltd. Birmingham, UK) and β-arrestin (PathHunter® eXpress AGTRL1 CHO-K1 β-Arrestin GPCR Assay, DiscoverX Corporation, Ltd. Birmingham, UK) assays were performed according to the manufacturer's instructions. The cAMP assay measures the canonical signalling pathway through the G-protein. The β-arrestin assay measures the alternative signalling pathway and receptor internalisation.
Cells were then incubated with a mixture of Lysis Buffer, cAMP Buffer D and Detection Reagents for 1 hour at room temperature, followed by a 3 hour incubation with cAMP Reagent A at room temperature. Chemiluminescence was read using the LumiLITE™ Microplate Reader (DiscoverX). Concentration-response data for agonists, measured in relative light units (RLU), were analysed using a 4 parameter logistic equation in GraphPad Prism 6 (La Jolla, CA, USA) to determine values of potency expressed as the pD2 value (negative logo of the EC50 (where EC50 is the concentration producing half maximal response)), and maximum response (EMAX). Mean data from replicate experiments were normalised as percentage inhibition of forskolin-stimulated cAMP production.

human apelin receptor [2] = biological target: T1, human apelin receptor; assay: DRx β-arrestin assay (PathHunter eXpress AGTRL1 CHO-K1); format: cell-based; conditions: for Kb: DRx β-Arrestin pA2; for DRx β-Arrestin pA2: cho-k1 cells, 90 min
Procedure: as §1
For recruitment of β-arrestin, CHO-K1 cells artificially expressing the human apelin receptor were seeded in Cell Plating medium into 96-well plates and incubated for 48 hours at 37° C. in 5% CO2. Concentration response curves were constructed to test peptides (1 pmol/L-30 μmol/L) which were diluted in Cell Plating medium and added to the cells for 90 minutes at 37° C. If no response was obtained then test peptides were investigated as antagonists. […] Detection reagents were then added for a 2-hour incubation at room temperature. […] If no agonist response was obtained, test compounds were investigated for antagonist activity by repeating [Pyr]apelin-13 concentration response curves in the absence and presence of a single concentration (1-30 μmol/L of test peptide). Data were analysed as described for the cAMP assay using the Gaddum/Schild EC50 function in GraphPad Prism 6 to determine values of pA2.

human apelin receptor [3] = biological target: T1, human apelin receptor; assay: Cerep radioligand binding assay on CHO-K1 cells expressing the human apelin receptor
Procedure: Binding assays were performed by Cerep (Celle L'Evescault, France) on Chinese Hamster Ovary (CHO-K1) cells expressing the human apelin receptor. […] The results were expressed as a percent of control specific binding ((measured specific binding/control specific binding)×100) and as a percent inhibition of control specific binding (100−((measured specific binding/control specific binding)×100)) obtained in the presence of the test compounds. […] The inhibition constants (Ki) were calculated using the Cheng Prusoff equation (Ki=IC50/(1+(L/KD)), where L=concentration of radioligand in the assay, and KD=equilibrium dissociation constant of the radioligand for the receptor).

[4] = [Glp65,Nle75,Tyr77][125I]apelin-13, read-out: Ki (binding affinity at the apelin receptor, Cerep)

SMILES | Kb (human apelin receptor [1]) | Kb (human apelin receptor [2]) | DRx β-Arrestin pA2 (human apelin receptor [2]) | Ki (human apelin receptor [3]; [4]) | Ki (human apelin receptor [3]; Ki (binding affinity at the apelin receptor, Cerep), [Glp65,Nle75,Tyr77][125I]apelin-13) [nM] | bias between cAMP and β-arrestin pathway inhibition (human apelin receptor [2]; comparison of β-arrestin and cAMP pA2 of Table 3)
CCCC[C@H](NC(=O)[C@H](CCCNC(=N)N)NC(=O)C(C)(C)NC(=O)[C@H](CCCNC(=N)N)NC(=O)[C@H](CS)NC(=O)[C@H](Cc1c[nH]cn1)NC(=O)[C@H](CCCCN)NC(=O)[C@H](CS)NC(=O)[C@H](CCCC)NC(=O)[C@H](CCCNC(=N)N)NC(=O)[C@@H]1CCCN1C(=O)[C@H](CCCNC(=N)N)NC(=O)[C@@H](N)CCC(N)=O)C(=O)N[C@@H](Cc1cc(F)c(F)c(F)c1)C(=O)O [MM262, QRPR-Nle-CKHCR-Aib-R-Nle-(3,4,5-trifluorophenylalanine)] (H-QRPR[Nle]CKHCR[Aib]R[Nle][Phe(3,4,5-F3)]-OH) | 447 nM and 135 nM | 29.5 nM | pA2 = 7.53 | 34 nM | – | –
CCCCCCCCCCCCCC(=O)N[C@@H](C)C(=O)N[C@@H](CCCNC(=N)N)C(=O)N1CCC[C@H]1C(=O)N[C@@H](CCCNC(=N)N)C(=O)N[C@@H](CCCC)C(=O)N[C@@H](CC)C(=O)N[C@@H](CCCCN)C(=O)N[C@@H](Cc1c[nH]cn1)C(=O)N[C@@H](CC)C(=O)N[C@@H](CCCNC(=N)N)C(=O)NC(C)(C)C(=O)N[C@@H](CCCNC(=N)N)C(=O)N[C@@H](CCCC)C(=O)N[C@@H](Cc1cc(F)c(F)c(F)c1)C(=O)O [MM315, Myristoyl-ARPR-Nle-Abu-KH-Abu-R-Aib-R-Nle-(3,4,5-trifluorophenylalanine)] (Myristoyl-ARPR[Nle][Abu]KH[Abu]R[Aib]R[Nle][Phe(3,4,5-F3)]-OH) | 7.76 nM and 3.02 nM | – | – | 2.7 nM and 3 nM | – | –
CC(C)C[C@H](NC(=O)[C@H](CCCNC(=N)N)NC(=O)[C@@H]1CCCN1C(=O)[C@H](CCCNC(=N)N)NC(=O)[C@H](CS)NC(=O)[C@H](Cc1c[nH]cn1)NC(=O)[C@H](CCCCN)NC(=O)[C@H](CS)NC(=O)[C@H](CC(C)C)NC(=O)[C@H](CCCNC(=N)N)NC(=O)[C@@H]1CCCN1C(=O)[C@H](CCCNC(=N)N)NC(=O)[C@@H](N)CS)C(=O)N[C@@H](CS)C(=O)O [MM108] (H-CRPRLCKHCRPRLC-OH) | 107 nM and 191 nM | 38.9 nM | pA2 = 7.41 | – | 140 | –
CCCC[C@H](NC(=O)[C@H](CCCNC(=N)N)NC(=O)C(C)(C)NC(=O)[C@H](CCCNC(=N)N)NC(=O)[C@H](CS)NC(=O)[C@H](Cc1c[nH]cn1)NC(=O)[C@H](CCCCN)NC(=O)[C@H](CS)NC(=O)[C@H](CCCC)NC(=O)[C@H](CCCNC(=N)N)NC(=O)[C@@H]1CCCN1C(=O)[C@H](CCCNC(=N)N)NC(=O)[C@@H]1CCC(=O)N1)C(=O)N[C@@H](Cc1cc(F)c(F)c(F)c1)C(=O)O [MM297, pyr-RPR-Nle-CKHCR-Aib-R-Nle-(3,4,5-trifluorophenylalanine)] ([pGlu]RPR[Nle]CKHCR[Aib]R[Nle][Phe(3,4,5-F3)]-OH) | 832 nM and 724 nM | 41.7 nM | pA2 = 7.38 | 55 nM | – | –
CC(C)C[C@H](NC(=O)[C@H](CCCNC(=N)N)NC(=O)[C@@H]1CCCN1C(=O)[C@H](CCCNC(=N)N)NC(=O)[C@H](CS)NC(=O)[C@H](CCCCN)NC(=O)[C@H](Cc1c[nH]cn1)NC(=O)[C@H](CS)NC(=O)[C@H](CC(C)C)NC(=O)[C@H](CCCNC(=N)N)NC(=O)[C@@H]1CCCN1C(=O)[C@H](CCCNC(=N)N)NC(=O)[C@@H](N)CS)C(=O)N[C@@H](CS)C(=O)O [MM107] (H-CRPRLCHKCRPRLC-OH; N-terminus and C-terminus assumed) | 4680 nM and 575 nM | 57.5 nM | pA2 = 7.24 | – | – | –
CCCC[C@H](NC(=O)[C@H](CCCNC(=N)N)NC(=O)C(C)(C)NC(=O)[C@H](CCCNC(=N)N)NC(=O)[C@H](CC)NC(=O)[C@H](Cc1c[nH]cn1)NC(=O)[C@H](CCCCN)NC(=O)[C@H](CC)NC(=O)[C@H](CCCC)NC(=O)[C@H](CCCNC(=N)N)NC(=O)[C@@H]1CCCN1C(=O)[C@H](CCCNC(=N)N)NC(=O)[C@H](C)N)C(=O)N[C@@H](Cc1cc(F)c(F)c(F)c1)C(=O)O [MM314, ARPR-Nle-Abu-KH-Abu-R-Aib-R-Nle-(3,4,5-trifluorophenylalanine)] (H-ARPR[Nle][Abu]KH[Abu]R[Aib]R[Nle][Phe(3,4,5-F3)]-OH) | 372 nM and 195 nM | – | – | 10 nM and 8.9 nM | – | –
CCCCCCCCCCCCCC(=O)N[C@@H](C)C(=O)N[C@@H](CCCNC(=N)N)C(=O)N1CCC[C@H]1C(=O)N[C@@H](CCCNC(=N)N)C(=O)N[C@@H](CCCC)C(=O)N[C@@H](CC)C(=O)N[C@@H](Cc1c[nH]cn1)C(=O)N[C@@H](CCCCN)C(=O)N[C@@H](CC)C(=O)N[C@@H](CCCNC(=N)N)C(=O)NC(C)(C)C(=O)N[C@@H](CCCNC(=N)N)C(=O)N[C@@H](CCCC)C(=O)N[C@@H](Cc1cc(F)c(F)c(F)c1)C(=O)O [MM316, Myristoyl-ARPR-Nle-Abu-HK-Abu-R-Aib-R-Nle-(3,4,5-trifluorophenylalanine)] (Myristoyl-ARPR[Nle][Abu]HK[Abu]R[Aib]R[Nle][Phe(3,4,5-F3)]-OH) | 13.2 nM and 38.9 nM | – | – | 2.8 nM and 3 nM | – | –
CCCC[C@H](NC(=O)[C@H](CCCNC(=N)N)NC(=O)C(C)(C)NC(=O)[C@H](CCCNC(=N)N)NC(=O)[C@H](CS)NC(=O)[C@H](CCCCN)NC(=O)[C@H](Cc1c[nH]cn1)NC(=O)[C@H](CS)NC(=O)[C@H](CCCC)NC(=O)[C@H](CCCNC(=N)N)NC(=O)[C@@H]1CCCN1C(=O)[C@H](CCCNC(=N)N)NC(=O)[C@@H](N)CS)C(=O)N[C@@H](Cc1cc(F)c(F)c(F)c1)C(=O)O [MM302, CRPR-Nle-CHKCR-Aib-R-Nle-(3,4,5-trifluorophenylalanine)] (H-CRPR[Nle]CHKCR[Aib]R[Nle][Phe(3,4,5-F3)]-OH; N-terminus and C-terminus assumed) | 20 nM and 55 nM | 2.69 nM and 2.29 nM | – | 17 nM | – | almost a log unit of bias towards inhibition of the β-arrestin pathway
CCCC[C@H](NC(=O)[C@H](CCCNC(=N)N)NC(=O)C(C)(C)NC(=O)[C@H](CCCNC(=N)N)NC(=O)[C@H](CC)NC(=O)[C@H](Cc1c[nH]cn1)NC(=O)[C@H](CCCCN)NC(=O)[C@H](CS)NC(=O)[C@H](CCCC)NC(=O)[C@H](CCCNC(=N)N)NC(=O)[C@@H]1CCCN1C(=O)[C@H](CCCNC(=N)N)NC(=O)[C@H](C)NC(C)=O)C(=O)N[C@@H](Cc1cc(F)c(F)c(F)c1)C(=O)O [MM313, Ac-ARPR-Nle-CKH-Abu-R-Aib-R-Nle-(3,4,5-trifluorophenylalanine)] (Ac-ARPR[Nle]CKH[Abu]R[Aib]R[Nle][Phe(3,4,5-F3)]-OH) | 219 nM and 120 nM | – | – | 53 nM and 47 nM | – | –
CCCC[C@H](NC(=O)[C@H](CCCNC(=N)N)NC(=O)C(C)(C)NC(=O)[C@H](CCCNC(=N)N)NC(=O)[C@H](CC)NC(=O)[C@H](Cc1c[nH]cn1)NC(=O)[C@H](CCCCN)NC(=O)[C@H](CS)NC(=O)[C@H](CCCC)NC(=O)[C@H](CCCNC(=N)N)NC(=O)[C@@H]1CCCN1C(=O)[C@H](CCCNC(=N)N)NC(=O)[C@H](C)N)C(=O)N[C@@H](Cc1cc(F)c(F)c(F)c1)C(=O)O [MM312, ARPR-Nle-CKH-Abu-R-Aib-R-Nle-(3,4,5-trifluorophenylalanine)] (H-ARPR[Nle]CKH[Abu]R[Aib]R[Nle][Phe(3,4,5-F3)]-OH) | 251 nM and 145 nM | – | – | 190 nM and 160 nM | – | –
